Measured values: US12447153B2, “HER2 mutation inhibitors” (Array BioPharma Inc., priority 2021, dated 2025)

What was measured:
EGFR wild type (EGFR WT) = EGFR wild type (EGFR WT) (Homo sapiens (Human), UniProt P00533); assay: Cellular Phosphorylation Assay, Assay 5 (EGF-stimulated EGFR phosphorylation, NIH 3T3 cells); assay type: cell-based
Protocol: NIH 3T3 cells were engineered to express ErbB2 with Exon 20 YVMA insertion (HER2-YVMA (SEQ ID NO: 2); Assay 4) or EGFR wild type (EGFR WT; Assay 5) with constructs obtained from GenScript and grown in DMEM supplemented with 10% fetal bovine serum and 15 μg/ml blasticidin. […] Serially diluted compounds were added to the plates for 1 hour at 37° C./5% CO2. EGFR WT cells were stimulated with 100 ng/ml rEGF for an additional 10 minutes at 37° C./5% CO2.
After compound incubation, medium was removed from the cells, which were then fixed in 3.7% formaldehyde in PBS at room temperature for 20 minutes. Following a wash with PBS, cells were permeabilized with 100% methanol at room temperature for 10 minutes. Cells were then washed with PBS/0.05% Tween-20 and blocked with Odyssey blocking buffer (LI-COR Biosciences) for at least 1 hour at room temperature. Antibodies to phosphorylated ErbB2 (Y1196, Cell Signaling #6942) or phosphorylated EGFR (Y1068, Cell Signaling #3777) and GAPDH (Millipore #MAB374) were added to the cells in blocking buffer containing 0.05% azide and incubated overnight at 4° C. After washing with PBS/0.05% Tween-20, the cells were incubated with fluorescently labeled secondary anti-rabbit antibody (LiCOR, IRDye 800CW #926-32211) and anti-mouse antibody (Molecular Probes, Alexa Fluor 680 #A21058) for 1 hour at room temperature in the dark. Cells were then washed and analyzed for fluorescence at both wavelengths using the Odyssey Infrared Imaging System (LI-COR Biosciences). Phosphorylated ErbB2 and EGFR signal was normalized to GAPDH signal to generate curves and calculate IC50 values.

EGFR = EGFR (Homo sapiens (Human), UniProt P00533); assay: ErbB Enzyme Assay (HTRF KinEASE-TK), Assay 3; assay type: biochemical
Sequence of EGFR (P00533 25-1210): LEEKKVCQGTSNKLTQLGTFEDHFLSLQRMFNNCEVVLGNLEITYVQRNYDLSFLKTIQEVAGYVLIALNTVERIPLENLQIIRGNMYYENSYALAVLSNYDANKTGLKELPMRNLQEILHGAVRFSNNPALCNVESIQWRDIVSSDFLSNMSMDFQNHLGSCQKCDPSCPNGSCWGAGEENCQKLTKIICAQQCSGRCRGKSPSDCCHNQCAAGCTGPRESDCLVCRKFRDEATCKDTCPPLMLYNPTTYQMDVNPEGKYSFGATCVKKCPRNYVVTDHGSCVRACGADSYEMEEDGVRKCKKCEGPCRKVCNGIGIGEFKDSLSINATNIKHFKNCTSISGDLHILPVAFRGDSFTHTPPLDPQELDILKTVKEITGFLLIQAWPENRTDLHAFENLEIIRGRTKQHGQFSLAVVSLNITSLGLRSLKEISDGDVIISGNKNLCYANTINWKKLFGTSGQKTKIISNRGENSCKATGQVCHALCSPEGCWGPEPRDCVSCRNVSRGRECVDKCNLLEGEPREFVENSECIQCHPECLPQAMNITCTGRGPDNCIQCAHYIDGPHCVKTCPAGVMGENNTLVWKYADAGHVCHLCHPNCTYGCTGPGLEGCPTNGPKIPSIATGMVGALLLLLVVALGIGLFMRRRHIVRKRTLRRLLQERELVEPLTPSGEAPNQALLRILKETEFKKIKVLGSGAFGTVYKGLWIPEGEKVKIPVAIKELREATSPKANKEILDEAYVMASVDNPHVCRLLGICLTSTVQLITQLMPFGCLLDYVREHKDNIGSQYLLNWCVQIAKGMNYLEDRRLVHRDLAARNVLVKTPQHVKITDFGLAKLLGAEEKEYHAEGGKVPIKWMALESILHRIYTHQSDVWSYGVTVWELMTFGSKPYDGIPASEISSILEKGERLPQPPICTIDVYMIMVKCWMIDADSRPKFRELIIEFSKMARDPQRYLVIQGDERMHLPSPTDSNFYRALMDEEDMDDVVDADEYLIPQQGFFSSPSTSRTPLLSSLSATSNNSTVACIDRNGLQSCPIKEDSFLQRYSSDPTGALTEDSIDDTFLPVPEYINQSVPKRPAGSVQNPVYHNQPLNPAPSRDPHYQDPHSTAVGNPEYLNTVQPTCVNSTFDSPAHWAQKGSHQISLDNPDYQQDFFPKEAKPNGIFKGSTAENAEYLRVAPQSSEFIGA
Protocol: The kinases were incubated with 250 nM TK-substrate biotin (CisBio, part of cat #62TKOPEC) at 1 mM ATP along with test compounds in a buffer consisting of 25 mM HEPES, pH 7.4, 10 mM MgCl2, 0.01% Triton X-100, and 2% DMSO in a volume of 8 μL. […] After 30-minute incubation at 22° C., the reaction was quenched by adding 8 μL of quench solution containing 62.5 nM Sa-XL665 and 0.25×TK-Ab-Cryptate in HTRF detection buffer (all from CisBio, part of cat #62TKOPEC). […] A 4-parameter logistic curve was fit to the POC values as a function of the concentration of compound, and the IC50 value was the point where the best-fit curve crossed 50 POC.

[1] = EGF-stimulated EGFR WT phosphorylation
[2] = cellular EGFR WT phosphorylation, EGF-stimulated

Sequence of EGFR wild type (EGFR WT) (P00533 25-1210): as above

Structure (SMILES) | IC50 (EGFR wild type (EGFR WT); [1]) [µM] | IC50 (EGFR; EGFR enzyme) [µM] | IC50 (EGFR wild type (EGFR WT); [2]) [µM] | IC50 (EGFR; EGFR enzyme assay) [µM]
C=CC(=O)N1CC[C@H]2CN(c3ccc4ncnc(Nc5ccc(Oc6ccc7c(c6)ncn7C)c(C)c5)c4n3)C[C@H]21 (racemic) [Example 104, rac-1-((3aR,6aR)-5-(4-((3-methyl-4-((1-methyl-1H-benzo[d]imidazol-5-yl)oxy)phenyl)amino)pyrido[3,2-d]pyrimidin-6-yl)hexahydropyrrolo[3,4-b]pyrrol-1(2H)-yl)prop-2-en-1-one] | ≥ 5 | ≥ 10 | – | –
C=CC(=O)N1C[C@H]2CC[C@@H]1C[C@@H]2c1ccc2ncnc(Nc3cc(C)c(Oc4ccn5ncnc5c4)cc3F)c2n1 (racemic) [Example 216, rac-1-((1R,4S,5S)-5-(4-((4-([1,2,4]triazolo[1,5-a]pyridin-7-yloxy)-2-fluoro-5-methylphenyl)amino)pyrido[3,2-d]pyrimidin-6-yl)-2-azabicyclo[2.2.2]octan-2-yl)prop-2-en-1-one] | ≥ 5 | 5 | – | –
C=CC(=O)N1CC[C@H]2CN(c3ccc4ncnc(Nc5ccc(Oc6ccn7ncnc7c6)c(C)c5F)c4n3)C[C@H]21 [Example 50, 1-((3aS,6aS)-5-(4-((4-([1,2,4]triazolo[1,5-a]pyridin-7-yloxy)-2-fluoro-3-methylphenyl)amino)pyrido[3,2-d]pyrimidin-6-yl)hexahydropyrrolo[3,4-b]pyrrol-1(2H)-yl)prop-2-en-1-one] | 3.22 | ≥ 10 | – | –
C=CC(=O)N1CCC(Oc2ccc3ncnc(Nc4ccc(Oc5cnc6cn(C)nc6c5)c(C)c4F)c3n2)CC1 [Example 58, 1-(4-((4-((2-fluoro-3-methyl-4-((2-methyl-2H-pyrazolo[4,3-b]pyridin-6-yl)oxy)phenyl)amino)pyrido[3,2-d]pyrimidin-6-yl)oxy)piperidin-1-yl)prop-2-en-1-one] | 2.23 | ≥ 10 | – | –
C=CC(=O)N1CC[C@@H]2CN(c3ccc4ncnc(Nc5ccc(Oc6ccn7ncnc7c6)c(C)c5F)c4n3)C[C@@H]21 [Example 71, 1-((3aR,6aR)-5-(4-((4-([1,2,4]triazolo[1,5-a]pyridin-7-yloxy)-2-fluoro-3-methylphenyl)amino)pyrido[3,2-d]pyrimidin-6-yl)hexahydropyrrolo[3,4-b]pyrrol-1(2H)-yl)prop-2-en-1-one] | ≥ 5 | ≥ 10 | – | –
C=CC(=O)N1CC[C@@H]2CN(c3ccc4ncnc(Nc5ccc(Oc6ccc7c(c6)ncn7C)c(C)c5)c4n3)C[C@@H]21 [Example 111, 1-((3aR,6aR)-5-(4-((3-methyl-4-((1-methyl-1H-benzo[d]imidazol-5-yl)oxy)phenyl)amino)pyrido[3,2-d]pyrimidin-6-yl)hexahydropyrrolo[3,4-b]pyrrol-1(2H)-yl)prop-2-en-1-one] | ≥ 5 | ≥ 10 | – | –
C=CC(=O)N1CC[C@H]2CN(c3ccc4ncnc(Nc5ccc(Oc6ccc7c(c6)ncn7C)c(C)c5)c4n3)C[C@H]21 [Example 117, 1-((3aS,6aS)-5-(4-((3-methyl-4-((1-methyl-1H-benzo[d]imidazol-5-yl)oxy)phenyl)amino)pyrido[3,2-d]pyrimidin-6-yl)hexahydropyrrolo[3,4-b]pyrrol-1(2H)-yl)prop-2-en-1-one] | ≥ 5 | ≥ 10 | – | –
CC#CC(=O)N1CCN(c2ccc3ncnc(Nc4ccc(Oc5ccn6ncnc6c5)c(C)c4F)c3n2)C[C@H]1C [Example 184, (R)-1-(4-(4-((4-([1,2,4]triazolo[1,5-a]pyridin-7-yloxy)-2-fluoro-3-methylphenyl)amino)pyrido[3,2-d]pyrimidin-6-yl)-2-methylpiperazin-1-yl)but-2-yn-1-one] | ≥ 5 | ≥ 10 | – | –
C=CC(=O)N1[C@H](C)CN(c2ccc3ncnc(Nc4ccc(Oc5ccn6ncnc6c5)c(C)c4F)c3n2)C[C@@H]1C [Example 264] | – | – | 4.55 | 6.67
C=CC(=O)N1CCN(c2ccc3ncnc(Nc4ccc(Oc5ccn6ncnc6c5)c(C)c4F)c3n2)C[C@@H]1CC [Example 269] | – | – | ≥ 5 | 8.2
C=CC(=O)N1CCN(c2ccc3ncnc(Nc4ccc(Oc5ccn6ncnc6c5)c(C)c4F)c3n2)C[C@H]1CC [Example 274] | – | – | 0.681 | 2.35
